Ends that are not written are not given here. Peptide text beside a SMILES is read from it.
What was measured:
CCL21 = target: T1, CCL21 (Homo sapiens, UniProt O00585); assay: CCL21-induced cell migration assay; type: cell-based; settings: HD2 mutant peptides 10 μM, chemokine at EC80
T1 sequence (O00585 24-134): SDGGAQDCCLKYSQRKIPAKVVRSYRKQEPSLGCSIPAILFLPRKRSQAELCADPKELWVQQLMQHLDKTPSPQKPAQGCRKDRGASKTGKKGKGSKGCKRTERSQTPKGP
Description: (§1) FIGS. 24 and 25. Effect of exemplar mutant HD2 peptides on chemotaxis. Box-whisker plots showing the effect of the exemplar mutant HD2 peptides on cell migration induced by indicated human chemokines. All experiments were performed as at least three technical and between one to three biological replicates, and individual data points are indicated. […] Chemokine and cell type names are indicated. HD2SCR is a scrambled version of HD2 used as negative control. All peptides were at 10 μM final concentration and chemokines at EC80 doses. Statistically significant differences (compared to control, coloured blue), using Dunnett's test with correction for multiple comparisons, are indicated by asterisks: ****=P≤0.0001, ***=P≤0.001, **=P≤0.01, *=P≤0.05.
The J:CXCR1 cell line was generated by transfecting Jurkat cells by electroporation with PvuI-linearized plasmid D1398 and selecting with blasticidin (Sigma-Aldrich, Cat #203350, […]). […] J:CXCR1 cells were cultured in RPMI-1640 media (Gibco), supplemented with 10% FBS and 5 mM L-Glutamine with blasticidin. For J:CXCR1 migration assays, 300,000 cells/well were added to the top chamber of a 3 μm Transwell insert (Corning) in 50 μL of migration media (RPMI-1640, 0.5% FBS, 4 mM L-Glutamine, 0.05% DMSO). The bottom chamber contained 150 μL of chemokine, with or without peptide. Cells were migrated at 37° C. in 5% CO2 for 4 hours. The plate was incubated on a shaking platform for 10 minutes, 800 rpm, at 37° C., and 150 μL from the bottom of the plate transferred into a U-bottom plate containing 50 μL of migration media. Cell counts were determined by Attune NxT Flow Cytometer Plate Reader (ThermoFisher), based on cell size parameters FSC-H/SSC-H. Experiments were performed in 3 technical and 3 biological replicates. THP-1 migration assays were carried out using methods known in the art. Activated T-cell assays were carried out using methods known in the art, with the following modifications in the isolation process. Peripheral blood cells were obtained from leucocyte cones (NHS Blood Transfusion Services), following which, T-cells were isolated using two rounds of human CD8+ T-cell isolation kit (480011, BioLegend). At day 10 after activation, T-cells were frozen at 20 E6 cells/ml in TexMACS medium supplemented with 10% DMSO (D2650, Sigma) in liquid nitrogen. Prior to use, activated T-cells were recovered for 24 hours in TexMACs medium at 0.3 E6 cells/ml and incubated at 37° C. in 5% CO2. Chemokine sources are described in Supplementary information Table 3. Statistical significances between control experimental groups was evaluated using Dunnett's test. IC50 experiments were performed at the EC80 dose of chemokine. EC80 was calculated by fitting a chemokine dose-response curve with 3 parameters (fixing the top to 100%). IC50 was calculated by fitting an inhibitor response curve with 4 parameters.
Migration assays using THP1, activated T-cell (ATC) and J:CXCR1 (Jurkat cells stably transfected with CXCR1 receptor) were performed as described previously. IC50 experiments were performed at the EC80 dose of chemokine. EC80 was calculated by fitting a chemokine dose-response curve with 3 parameters (fixing the top to 100%). IC50 was calculated by fitting an inhibitor response curve with 4 parameters. R-packages used were ggupset_0.3.0, DescTools_0.99.44, and drc_3.0-1.

CC and CXC chemokines = assay: Chemokine-induced cell migration assays, pooled over chemokines (meta-analysis); type: cell-based, human; settings: single HD2 mutations; nine CC and six CXC chemokines
Description: FIG. 16. Effect of HD2 alanine mutations on chemotaxis. […] All experiments were performed as three technical and three biological replicates, and individual data points are indicated, and coloured by the chemokine used. Statistically significant differences (compared to control, coloured blue), using Dunnett's test with correction for multiple comparisons, are indicated by asterisks: ****=P≤0.0001, ***=P≤0.001, **=P≤0.01, *=P≤[…] observations per group (three technical and three biological replicates for each chemokine). FIG. 16B, Faceted plots of change in median normalised cell count between alanine mutant and wild-type HD2 peptide obtained in cell migration assays (Y-axis, Δmedian normalised cell count) versus alanine mutated residue (X-axis). Chemokines used for each experiment are indicated in the strip to the right of each plot. Statistically significant differences compared to parental HD2 are shown as red dots. […] Scatterplot of Δmedian normalised cell count (Y-axis, obtained in cell migration assays) versus Δlog 2 E (obtained in phage-display experiments) for peptide:chemokine pairs. Individual data points indicate peptide chemokine pairs for which both cell migration and Δlog 2 E were available. Linear regression plot with 95% confidence interval, Spearman correlation coefficient (R) and statistical significance (p) are shown.
FIG. 19. […] All experiments were performed as at least three technical and three biological replicates, and individual data points are indicated, and coloured by the chemokine used, for all chemokines studied (n=16 chemokines). Statistically significant differences (compared to control, coloured blue), using Dunnett's test with correction for multiple comparisons, are indicated by asterisks: ****=P≤0.0001, ***=P≤0.001, **=P≤0.01, *=P≤0.05.
Briefly, cell migration assays use THP1 cells (human monocyte) and primary human buffy coat white cells (consisting of neutrophil granulocytes, monocytes, and lymphocytes), and activated T-cells. THP1 cells and primary monocytes respond to CCL2, CCL3, CCL5, CCL8 and CXCL4, granulocytes to CXCL1 and CXCL8, activated T-cells to CXCL9/10/11. Assays are performed in 96-well Boyden chambers, and migrated cells counted and characterized using and ATTUNE Flow Cytometer as described. Triplicate assays are performed at the EC80 dose of each chemokine at 10 μM peptide concentration.
The J:CXCR1 cell line was generated by transfecting Jurkat cells by electroporation with PvuI-linearized plasmid D1398 and selecting with blasticidin (Sigma-Aldrich, Cat #203350, […]). […] J:CXCR1 cells were cultured in RPMI-1640 media (Gibco), supplemented with 10% FBS and 5 mM L-Glutamine with blasticidin. For J:CXCR1 migration assays, 300,000 cells/well were added to the top chamber of a 3 μm Transwell insert (Corning) in 50 μL of migration media (RPMI-1640, 0.5% FBS, 4 mM L-Glutamine, 0.05% DMSO). The bottom chamber contained 150 μL of chemokine, with or without peptide. Cells were migrated at 37° C. in 5% CO2 for 4 hours. The plate was incubated on a shaking platform for 10 minutes, 800 rpm, at 37° C., and 150 μL from the bottom of the plate transferred into a U-bottom plate containing 50 μL of migration media.

CXCL5 = target: T2, CXCL5 (Homo sapiens, UniProt P42830); assay: CXCL5-induced cell migration assay; type: cell-based; settings: HD2 mutant peptides 10 μM, chemokine at EC80
T2 sequence (P42830 37-114): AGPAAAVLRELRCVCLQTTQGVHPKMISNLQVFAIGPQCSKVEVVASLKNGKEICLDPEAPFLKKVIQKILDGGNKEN
Description: as §1
The J:CXCR1 cell line was generated by transfecting Jurkat cells by electroporation with PvuI-linearized plasmid D1398 and selecting with blasticidin (Sigma-Aldrich, Cat #203350, […]). […] J:CXCR1 cells were cultured in RPMI-1640 media (Gibco), supplemented with 10% FBS and 5 mM L-Glutamine with blasticidin. For J:CXCR1 migration assays, 300,000 cells/well were added to the top chamber of a 3 μm Transwell insert (Corning) in 50 μL of migration media (RPMI-1640, 0.5% FBS, 4 mM L-Glutamine, 0.05% DMSO). […] Cell counts were determined by Attune NxT Flow Cytometer Plate Reader (ThermoFisher), based on cell size parameters FSC-H/SSC-H. Experiments were performed in 3 technical and 3 biological replicates. […] Statistical significances between control experimental groups was evaluated using Dunnett's test. […] EC80 was calculated by fitting a chemokine dose-response curve with 3 parameters (fixing the top to 100%). IC50 was calculated by fitting an inhibitor response curve with 4 parameters.
Migration assays using THP1, activated T-cell (ATC) and J:CXCR1 (Jurkat cells stably transfected with CXCR1 receptor) were performed as described previously. […] EC80 was calculated by fitting a chemokine dose-response curve with 3 parameters (fixing the top to 100%). IC50 was calculated by fitting an inhibitor response curve with 4 parameters. […]

Row | Compound | chemotaxis compared with the parental HD2 peptide (CCL21) | chemotaxis inhibition compared with HD2, meta-analysis (CC and CXC chemokines) | chemotaxis compared with the parental HD2 peptide (CXCL5)
1 | EEDDWTAYAPLTCYFT-NH2 [HD2_W5, EEDDWTAYAPLTCYFT] | significant reduction in chemotaxis | significant improvement over HD2 | –
2 | CC(C)C[C@H](NC(=O)[C@@H]1CCCN1C(=O)[C@H](C)NC(=O)[C@H](Cc1ccc(O)cc1)NC(=O)[C@H](C)NC(=O)[C@@H](NC(=O)[C@H](Cc1ccc(O)cc1)NC(=O)[C@H](CC(=O)O)NC(=O)[C@H](CC(=O)O)NC(=O)[C@H](CCC(=O)O)NC(=O)[C@@H](N)CCC(=O)O)[C@@H](C)O)C(=O)N[C@H](C(=O)N[C@@H](CS)C(=O)N[C@@H](Cc1ccc(O)cc1)C(=O)N[C@@H](Cc1ccccc1)C(=O)N[C@@H](CS)C(N)=O)[C@@H](C)O [HD2_C16, EEDDYTAYAPLTCYFC] (H-EEDDYTAYAPLTCYFC-NH2; N-terminus assumed) | significant reduction in chemotaxis | significant improvement over HD2 | significant reduction in chemotaxis
3 | EEDDYWAYAPLTCYFT [HD2_W6] | significant reduction in chemotaxis | significant improvement over HD2 | significant reduction in chemotaxis
4 | EEDDYTAYWPLTCYFT [A9W] | significant reduction in chemotaxis | significant improvement over HD2 | significant reduction in chemotaxis

Source: patent US20260234188A1, “CHEMOKINE-BINDING PEPTIDES” (Oxford University Innovation Limited, priority 2022, published 2026)
